{
  "source": "patent US7691833B2",
  "about": "“Compositions and methods for preventing sporadic neoplasia in colon” (Trustees of Dartmouth College, priority 2002, dated 2010)",
  "key": {"[1]": {"assay": "Serious medical events in the randomized, placebo-controlled aspirin study", "conditions": "for Serious Bleeding, Gastrointestinal, no of subjects / Serious Bleeding, Genitourinary, no of subjects: bleeding leading to hospitalization or surgical intervention", "protocol": "A multi-center, randomized, double-blind, placebo-controlled study was performed that examined the effects of aspirin alone as well as folate treatment combined with aspirin on the occurrence of large bowel adenomas. The study has a 3-by-2 factorial design, investigating aspirin (placebo, 81 mg/day, or 325 mg/day) and folic acid (placebo or 1 mg/day). Patients were recruited at nine centers in North America. Eligible subjects had at least one of the following: (1) one or more histologically confirmed large-bowel adenomas removed within 3 months prior to recruitment, (2) one or more histologically confirmed large-bowel adenomas removed within 16 months before recruitment and a lifetime history of 2 or more confirmed large-bowel adenomas, or (3) a histologically confirmed large-bowel adenoma at least 1 cm in diameter removed within 16 months before recruitment. […] Eligible subjects were between 21 and 80 years old, in good health, and with anticipated colonoscopic follow-up three years after the qualifying examination. Exclusion criteria included a history of a familial colorectal cancer syndrome, invasive large-bowel cancer, malabsorption syndromes, any condition potentially worsened by supplemental aspirin or folic acid, or any condition commonly treated with aspirin, non-steroidal anti-inflammatory drugs (NSAIDs), or folate (e.g., recurrent arthritis, atherosclerotic vascular disease, folic acid deficiency).\nStudy coordinators at each center maintained contact with the subjects on a regular basis; interval questionnaires regarding possible side effects and medical events were completed every four months by each subject.\nSubjects were regularly counseled regarding avoidance of aspirin and other NSATDs. Lists of products containing aspirin, ibuprofen, or naproxen were provided, and acetaminophen was distributed for treatment of minor febrile illnesses and pain. Every four months, subjects received questionnaires regarding adherence to study treatment; use of medications, over-the-counter drugs and nutritional supplements; and occurrence of symptoms, illnesses, and hospitalizations.\nThe statistical analysis compared the aspirin treatment groups irrespective of folic acid treatment. Subjects who underwent a follow-up endoscopy at least one year following randomization were included in the analyses. The predefined primary statistical analysis was a 2 degree-of-freedom chi-squared test for a contingency table comparing treatment groups regarding risk of one or more new adenomas. Crude risk ratios and 95 percent confidence intervals were used to compare treatment groups to placebo. Adjusted risk ratios were obtained from log-linear models with age, gender, clinical center, number of lifetime adenomas, and duration of follow-up as covariates. […] Possible modification of treatment effects by baseline characteristics was assessed using interaction terms in the log-linear model. Counts of other clinical endpoints were compared using Fisher's exact test. To compare the effect of aspirin on different types of polyps, a logistic regression model was used with generalized estimating equations (Liang and Zeger Biometrika 1986:13-22) to account for the clustering of multiple endpoints within patients. […] Two-sided P-values <0.05 were considered statistically significant."}, "large bowel adenomas": {"system": "large bowel adenomas", "assay": "Randomized, double-blind, placebo-controlled study of aspirin on occurrence of large bowel adenomas", "type": "in vivo, humans", "conditions": "for Relative Crude Risk (95% CI) / Adjusted Relative Risk (95% CI): versus placebo", "description": "Patients were recruited at nine centers in North America.\nBy protocol, subjects were to have a complete surveillance colonoscopy 34-40 months after the qualifying examination. At each colonoscopy, the endoscopist recorded the estimated size and location of all polyps and mucosal lesions suspicious for neoplasia as per usual clinical practice. Each lesion was removed and examined histologically at the clinical center and by the study pathologist. Polyps were classified as neoplastic (adenomatous) or non-neoplastic (e.g., hyperplastic) by the study pathologist.\nThe primary study outcome was the proportion of subjects with one or more colorectal adenomas detected during the period from one year after randomization through the anticipated surveillance follow-up. If a surveillance colonoscopy was not performed during the protocol time window, the last examination at least one year after randomization was taken as the follow-up exam. Pre-specified secondary outcomes were the numbers of large-bowel adenomas and “advanced lesions”: tubulovillous adenomas (25 to 75 percent villous features), villous adenomas (>75 percent villous), large adenomas ([…]), severe dysplasia, or invasive cancer. Separate analyses were also conducted for lesions in the left colorectum (descending colon, sigmoid colon, and rectum) and right colorectum (the remainder of the bowel)."}, "[2]": {"conditions": "Advanced Lesion, both aspirin groups combined"}, "[3]": {"conditions": "Any Adenoma, both aspirin groups combined"}, "[4]": {"conditions": "Tubular Adenoma, both aspirin groups combined"}},
  "data": [
    {"smiles": "CC(=O)Oc1ccccc1C(=O)O", "note": "[Aspirin, acetylsalicylic acid]", "values": [
      {"measurement": "Died, percent", "setting": "[1]; 81 mg Aspirin, N = 377 (Table 2)", "result": 0.8, "unit": "%"},
      {"measurement": "Coronary Revascularization, no of subjects", "setting": "[1]; 81 mg aspirin (N = 377)", "result": 3},
      {"measurement": "Deaths, no of subjects", "setting": "[1]; 81 mg aspirin (N = 377)", "result": 3},
      {"measurement": "Hospitalization, no of subjects", "setting": "[1]; 81 mg aspirin (N = 377)", "result": 61},
      {"measurement": "Myocardial Infarction, no of subjects", "setting": "[1]; 81 mg aspirin (N = 377)", "result": 2},
      {"measurement": "Non-Colorectal Cancer, no of subjects", "setting": "[1]; 81 mg aspirin (N = 377)", "result": 14},
      {"measurement": "Stroke, no of subjects", "setting": "[1]; 81 mg aspirin (N = 377)", "result": 2},
      {"measurement": "Serious Bleeding, Gastrointestinal, no of subjects", "setting": "[1]; 81 mg aspirin (N = 377)", "result": 2},
      {"measurement": "Serious Bleeding, Genitourinary, no of subjects", "setting": "[1]; 81 mg aspirin (N = 377)", "result": 6},
      {"measurement": "stroke judged to be hemorrhagic", "setting": "[1]; 81 mg aspirin group, after review of the medical records", "result": "One"},
      {"measurement": "Died, percent", "setting": "[1]; 325 mg Aspirin, N = 372 (Table 2)", "result": 1.1, "unit": "%"},
      {"measurement": "Coronary Revascularization, no of subjects", "setting": "[1]; 325 mg aspirin (N = 372)", "result": 5},
      {"measurement": "Deaths, no of subjects", "setting": "[1]; 325 mg aspirin (N = 372)", "result": 4},
      {"measurement": "Hospitalization, no of subjects", "setting": "[1]; 325 mg aspirin (N = 372)", "result": 57},
      {"measurement": "Myocardial Infarction, no of subjects", "setting": "[1]; 325 mg aspirin (N = 372)", "result": 4},
      {"measurement": "Non-Colorectal Cancer, no of subjects", "setting": "[1]; 325 mg aspirin (N = 372)", "result": 9},
      {"measurement": "Stroke, no of subjects", "setting": "[1]; 325 mg aspirin (N = 372)", "result": 5},
      {"measurement": "Serious Bleeding, Gastrointestinal, no of subjects", "setting": "[1]; 325 mg aspirin (N = 372)", "result": 4},
      {"measurement": "Serious Bleeding, Genitourinary, no of subjects", "setting": "[1]; 325 mg aspirin (N = 372)", "result": 2},
      {"measurement": "Hospitalization, cancer and myocardial infarction frequency", "setting": "[1]; aspirin groups versus placebo, differences compatible with chance", "result": "somewhat more frequently in the aspirin groups than in placebo"},
      {"measurement": "patients diagnosed with a stroke (all non-fatal)", "setting": "[1]; both aspirin groups together, none in placebo", "result": "Seven"},
      {"measurement": "reduction in risk for advanced lesions", "setting": "large bowel adenomas; 81 mg aspirin", "result": "> 40", "unit": "%"},
      {"measurement": "reduction in risk of one or more adenomas", "setting": "large bowel adenomas; 81 mg aspirin", "result": 19, "unit": "%"},
      {"measurement": "adjusted risk ratio for the detection of at least one advanced adenoma", "setting": "large bowel adenomas; 81 mg aspirin, among women", "result": 0.18},
      {"measurement": "adjusted risk ratio for the detection of at least one advanced adenoma", "setting": "large bowel adenomas; 81 mg aspirin, among younger subjects (younger than median age 57 years at randomization)", "result": 0.37},
      {"measurement": "reduction in risk of one or more adenomas", "setting": "large bowel adenomas; 325 mg aspirin, non-significant", "result": 4, "unit": "%"},
      {"measurement": "N with adenoma/N followed", "setting": "large bowel adenomas; Advanced Lesion, 81 mg/day", "result": "28/366"},
      {"measurement": "N with adenoma/N followed (percent)", "setting": "large bowel adenomas; Advanced Lesion, 81 mg/day", "result": "(7.7%)"},
      {"measurement": "Relative Crude Risk (95% CI)", "setting": "large bowel adenomas; Advanced Lesion, 81 mg/day", "result": 0.59},
      {"measurement": "Adjusted Relative Risk (95% CI)", "setting": "large bowel adenomas; Advanced Lesion, 81 mg/day, adjusted", "result": 0.58},
      {"measurement": "N with adenoma/N followed", "setting": "large bowel adenomas; Advanced Lesion, 325 mg/day", "result": "38/355"},
      {"measurement": "N with adenoma/N followed (percent)", "setting": "large bowel adenomas; Advanced Lesion, 325 mg/day", "result": "(10.7%)"},
      {"measurement": "Relative Crude Risk (95% CI)", "setting": "large bowel adenomas; Advanced Lesion, 325 mg/day", "result": 0.83},
      {"measurement": "Adjusted Relative Risk (95% CI)", "setting": "large bowel adenomas; Advanced Lesion, 325 mg/day, adjusted", "result": 0.83},
      {"measurement": "N with adenoma/N followed", "setting": "large bowel adenomas; [2]", "result": "66/721"},
      {"measurement": "N with adenoma/N followed (percent)", "setting": "large bowel adenomas; [2]", "result": "(9.2%)"},
      {"measurement": "Relative Crude Risk (95% CI)", "setting": "large bowel adenomas; [2]", "result": 0.71},
      {"measurement": "Adjusted Relative Risk (95% CI)", "setting": "large bowel adenomas; Advanced Lesion, both aspirin groups combined, adjusted", "result": 0.70},
      {"measurement": "N with adenoma/N followed", "setting": "large bowel adenomas; Any Adenoma, 81 mg/day", "result": "140/366"},
      {"measurement": "N with adenoma/N followed (percent)", "setting": "large bowel adenomas; Any Adenoma, 81 mg/day", "result": "(38.3%)"},
      {"measurement": "N with adenoma/N followed (percent)", "setting": "large bowel adenomas; Any Adenoma, 81 mg/day, listed as aspirin", "result": 38.3, "unit": "%"},
      {"measurement": "Relative Crude Risk (95% CI)", "setting": "large bowel adenomas; Any Adenoma, 81 mg/day", "result": 0.81},
      {"measurement": "Adjusted Relative Risk (95% CI)", "setting": "large bowel adenomas; Any Adenoma, 81 mg/day, adjusted", "result": 0.83},
      {"measurement": "N with adenoma/N followed", "setting": "large bowel adenomas; Any Adenoma, 325 mg/day", "result": "160/355"},
      {"measurement": "N with adenoma/N followed (percent)", "setting": "large bowel adenomas; Any Adenoma, 325 mg/day", "result": "(45.1%)"},
      {"measurement": "N with adenoma/N followed (percent)", "setting": "large bowel adenomas; Any Adenoma, 325 mg/day, listed as aspirin", "result": 45.1, "unit": "%"},
      {"measurement": "Relative Crude Risk (95% CI)", "setting": "large bowel adenomas; Any Adenoma, 325 mg/day", "result": 0.96},
      {"measurement": "Adjusted Relative Risk (95% CI)", "setting": "large bowel adenomas; Any Adenoma, 325 mg/day, adjusted", "result": 0.95},
      {"measurement": "N with adenoma/N followed (percent)", "setting": "large bowel adenomas; [3]", "result": "(41.6%)"},
      {"measurement": "N with adenoma/N followed", "setting": "large bowel adenomas; Any Adenoma, both aspirin groups combined (81 and 325 mg/day)", "result": "300/721"},
      {"measurement": "Relative Crude Risk (95% CI)", "setting": "large bowel adenomas; [3]", "result": 0.88},
      {"measurement": "Adjusted Relative Risk (95% CI)", "setting": "large bowel adenomas; Any Adenoma, both aspirin groups combined, adjusted for age, sex, clinical center, length of follow-up, baseline number of lifetime adenoma", "result": 0.89},
      {"measurement": "N with adenoma/N followed", "setting": "large bowel adenomas; Tubular Adenoma, 81 mg/day", "result": "121/366"},
      {"measurement": "N with adenoma/N followed (percent)", "setting": "large bowel adenomas; Tubular Adenoma, 81 mg/day", "result": "(33.1%)"},
      {"measurement": "Relative Crude Risk (95% CI)", "setting": "large bowel adenomas; Tubular Adenoma, 81 mg/day", "result": 0.84},
      {"measurement": "Adjusted Relative Risk (95% CI)", "setting": "large bowel adenomas; Tubular Adenoma, 81 mg/day, adjusted", "result": 0.87},
      {"measurement": "N with adenoma/N followed", "setting": "large bowel adenomas; Tubular Adenoma, 325 mg/day", "result": "141/355"},
      {"measurement": "N with adenoma/N followed (percent)", "setting": "large bowel adenomas; Tubular Adenoma, 325 mg/day", "result": "(39.7%)"},
      {"measurement": "Relative Crude Risk (95% CI)", "setting": "large bowel adenomas; Tubular Adenoma, 325 mg/day", "result": 1.01},
      {"measurement": "Adjusted Relative Risk (95% CI)", "setting": "large bowel adenomas; Tubular Adenoma, 325 mg/day, adjusted", "result": 1.00},
      {"measurement": "N with adenoma/N followed", "setting": "large bowel adenomas; [4]", "result": "262/721"},
      {"measurement": "N with adenoma/N followed (percent)", "setting": "large bowel adenomas; [4]", "result": "(36.3%)"},
      {"measurement": "Relative Crude Risk (95% CI)", "setting": "large bowel adenomas; [4]", "result": 0.92},
      {"measurement": "Adjusted Relative Risk (95% CI)", "setting": "large bowel adenomas; Tubular Adenoma, both aspirin groups combined, adjusted", "result": 0.93},
      {"measurement": "reduction in risk of one or more adenomas", "setting": "large bowel adenomas; both aspirin groups combined, non-significant", "result": 12, "unit": "%"},
      {"measurement": "incidence of adenomas", "setting": "large bowel adenomas; patients randomized to the aspirin groups", "result": "significantly lower"}
    ]}
  ]
}
